According to patent US7635686B2, “Therapeutically useful triethyleneglycol cholesteryl oligonucleotides” (Bioniche Life Sciences, Inc., priority 2001, dated 2009):
{TEG-Chol} = cholesteryl attached through a triethylene glycol (TEG) linker

Key:
[1] = system: MCF-7 cells; test: Treatment of pre-formed 3-dimensional MCF-7 structures on MATRIGEL; assay type: cell-based, human; conditions: MCF-7, 53 μM, repeated every 3-4 days up to 19-20 days, FIG. 3
Method: MCF-7 cells were cultured in regular culture medium (RCM), trypsinized and counted. 150×10^3 of MCF-7 cells, in wells of 24-well plates coated with 350 μl of MATRIGEL®. After the formation of 3-dimensional structures during 48 hrs without any treatment, the medium was changed and the structures were exposed to a final concentration of 53 μM of SEQ ID NO:3, 53 μM of SEQ ID NO:7, 53 μM of cholesteryl-TEG phosphoramidite, RCM or their respective control media (RCM with water, RCM with DMSO, or RCM with acetonitrile). The treatments were repeated every 3-4 days until a maximum time in culture of 19-20 days. The experiment was repeated three times. Digital photographs of the cells in the 24-well plates were taken using a Nikon Coolpix 990 digital camera connected to a Nikon inverted microscope model TMS.

[2] = system: Hs578T cells; test: Cell cycle progression in Hs578T multicellular spheroids (PI staining); assay type: cell-based, human; conditions: 53 μM, 72 hrs, FIG. 5
Method: Multicellular spheroids (MS) is an example of a special in vitro assay, in which tumor cells are cultured in a 3-dimensional manner to form a “tumor-like” structure. In this system, there is a reinforcement of cell-cell interactions that mimic microenvironmental conditions of malignant cells in solid tumors in vivo. In this type of assay, no extracellular matrix components are added. Cells cultured in this MS system differ from those in 2-dimensional systems (monolayer culture conditions). Some of these differences are related to structural and functional differentiation of tumor cells, changes in the cell cycle of tumor cells, “multicellular drug resistance”, and changes in the diffusion and penetration of drugs throughout layers of tumor cells (reviewed in Green et al., Anticancer Drug Des. 14:153, 1999).
About 100×10^3 Hs578T cells per spheroid were cultured in presence of 53 μM final concentration of SEQ ID NO:3, SEQ ID NO:7, 53 μM final concentration of cholesteryl-TEG phosphoramidite (cholTEG) or corresponding control media (regular culture medium (RCM), RCM with the same amount of water (RCMW) as the amount added with the SEQ ID NO:7, and RCM with the same amount of acetonitrile (RCMA) as the amount added with cholesteryl-TEG phosphoramidite). Five spheroids per each experimental condition were cultured for 72 hrs. Afterwards, cell cycle progression was evaluated by propidium iodide (PI) staining (Calbiochem, Novabiochem Corporation, San Diego, Calif.) using a FACScalibur flow cytometer (Becton Dickinson, Franklin Lakes, N.J.). Changes in the percentage of cells in the different phases of the cell cycle were analyzed using MODFIT LT software (Verity Software House Inc).

[3] = system: EL-4 cells; test: Apoptosis by phosphatidylserine redistribution (annexin V flow cytometry) in EL-4 cells; assay type: cell-based, murine; conditions: 24 hours; for Percentage of positive cells for phosphatidylserine (cells in apoptosis) in EL-4 cells: untreated cells 7%
Method: (§1) Redistribution of plasma membrane phosphatidylserine is a characteristic of cells undergoing apoptosis (Martin et al., J. Exp. Med., 182:1545, 1995). The redistribution of phosphatidylserine in the plasma membrane during apoptosis was measured by flow cytometry using FITC (fluorescein isothiocyanate)-conjugated annexin V (BD Pharmingen, San Diego, Calif.). MEG-01 cells, a human chronic myelogeneous leukemia cell line positive for the Philadelphia chromosome and having a BCR-ABL gene fusion, were incubated at 2.5×10^5 cells/ml for 48 hours with 5.3, 26.5 and 53.0 μM final concentrations of SEQ ID NO:1, SEQ ID NO:2, SEQ ID NO:5, SEQ ID NO:6 and cholesteryl-TEG phosphoramidite molecule. The percentage of cells in apoptosis after exposure to the SEQ ID NOs:1, 2, 5, 6, or cholesteryl-TEG phosphoramidite treatment is reported in Table 2. The percentage of apoptosis in untreated MEG-01 cells was 12%.
EL-4 cells, a murine T lymphoma cell line, were incubated at 2.5×10^5 cells/ml for 24 hours with 0.53, 5.3 and 53.0 μM concentrations of SEQ ID NO:3, SEQ ID NO:7 or cholesteryl-TEG phosphoramidite. The percentage of cells in apoptosis after exposure to SEQ ID NO:3, SEQ ID NO:7 or cholesteryl-TEG phosphoramidite treatment is reported in Table 3. The percentage of apoptosis in untreated EL-4 cells was 7%.

[4] = system: Hs578T cells; test: Cellular proliferation of Hs578T cells (Trypan blue exclusion count); assay type: cell-based, human; conditions: 53 μM
Method: (§2) Either 20×10^3 MDA-MB-231 (MDA-231) or Hs578T cells were plated into individual wells of 24-well plates in regular culture medium (RCM) presence or absence (control) of 53 μM (final concentration) of SEQ ID NO:3, SEQ ID NO:7, 53 μM cholesteryl-TEG phosphoramidite, or corresponding control media (regular culture medium (RCM) for SEQ ID NO:3, RCM with the same amount of water as the amount added with the SEQ ID NO:7, and RCM with the same amount of acetonitrile as the amount added with cholesteryl-TEG phosphoramidite). Cells were cultured for 72 hrs, removed with trypsin and counted with an hemocytometer using the Trypan blue exclusion technique. Results of three independent assays (mean and standard deviation (s.d.) of percentage of changes compared to controls) are shown in Table 9.

[5] = system: MDA-MB-231 (MDA-231) cells; test: Cellular proliferation of MDA-231 cells (Trypan blue exclusion count); assay type: cell-based, human; conditions: MDA-231, 53 μM
Method: as §2

[6] = system: MEG-01 cells; test: Apoptosis by phosphatidylserine redistribution (FITC-annexin V flow cytometry) in MEG-01 cells; assay type: cell-based, human; conditions: 48 hours; for Percentage of positive cells for phosphatidylserine (cells in apoptosis) in MEG-01 cells: untreated cells 12%
Method: as §1

[7] = system: MDA-MB-231 (MDA-231) cells; test: Treatment of pre-formed 3-dimensional MDA-231 structures on MATRIGEL; assay type: cell-based, human; conditions: MDA-231, 53 μM, repeated every 3-4 days up to 17-21 days, FIG. 4
Method: The MDA-MB-231 (MDA-231) cells were cultured in regular culture medium, trypsinized and counted. 100×10^3 of MDA-231 cells were plated in regular culture medium (RCM), in wells of 24-well plates coated with 350 μl of MATRIGEL®. After the formation of 3-dimensional structures during 48 hrs without any treatment, the medium was changed, and structures were exposed to a final concentration of 53 μM of SEQ ID NO:3, 53 μM of SEQ ID NO:7, 53 μM of cholesteryl-TEG phosphoramidite, RCM, or their respective control media (RCM with water, RCM with DMSO or RCM with acetonitrile). The treatments were repeated every 3-4 days until a maximum time in culture of 17-21 days. The experiment was repeated three times. Digital photographs of the cells in the 24-well plates were taken using a Nikon Coolpix 990 digital camera connected to a Nikon inverted microscope model TMS.

[8] = system: HIG-82 cells; test: HIG-82 synovial cell proliferation (MTT reduction); assay type: cell-based, rabbit; conditions: 53 μM, 48 hours; for Inhibition of HIG-82 cell proliferation, inhibition (%): MTT
Method: Adherent HIG-82 cells, a synovial cell line, were incubated at 10×10^5 cells/ml for 48 hours with 53 μM (final concentration) of SEQ ID NO:2, SEQ ID NO:3, SEQ ID NO:4, SEQ ID NO:6, SEQ ID NO:7, or SEQ ID NO:8. Cellular proliferation was measured using dimethylthiazol-diphenyl-tetrazolium (MTT) reduction (Mosman et al., J. Immunol. Methods 65:55, 1983). MTT was measured at a wavelength of 570 nm using a multiple spectrophotometer reader (ELX800, Bio-TEK, Instruments Inc., Winooski, Vt.). The percentage of inhibition, calculated as […]

[9] = system: Hs578T cells; test: MATRIGEL outgrowth after 1 hr pre-incubation, Hs578T; assay type: cell-based, human; conditions: 53 μM pre-incubation 1 hr, 3 days on MATRIGEL, FIG. 1 and FIG. 2
Method: (§3) Various in vitro and in vivo assays may be used to evaluate the influence of the extracellular microenvironment on behavior of normal cells and tumor cells. Such assays may employ MATRIGEL® (Becton Dickinson, Franklin Lakes, N.J.), which is a solubilized basement membrane preparation extracted from the Engelbreth-Holm-Swarm murine sarcoma.
(§4) MCF-7, MDA-MB-231 (MDA-231), Hs578T and Mpanc-96 cells were cultured separately in regular culture medium, trypsinized, and counted. 100×10^3 of MDA-231 cells, 100×10^3 of Hs578T cells, 150×10^3 of MCF-7 cells and 150×10^3 of Mpanc-96 cells were separately pre-incubated for 1 hr at 37° C. in a final concentration of 53 μM of SEQ ID NO:1, 53 μM of SEQ ID NO:5 or RCM, and plated on top of MATRIGEL®-coated plates (MATRIGEL® Basement membrane matrix coated cellware 24-well plate,) for 3 days. Plates were fixed with 10% formalin. Digital photographs of the cells in the 24-well plates were taken using a Nikon Coolpix 990 digital camera (Nikon Corporation, Tokyo, Japan) connected to a Nikon inverted microscope model TMS.
(§5) MDA-MB-231 (MDA-231) and Hs578T were cultured in regular culture medium, trypsinized and counted. 100×10^3 of MDA-MB-231 cells or 100×10^3 of Hs578T cells, were separately pre-incubated for 1 hr at 37° C. in a final concentration of 53 μM of SEQ ID NO:4, 53 μM of SEQ ID NO:8 or RCM and plated on MATRIGEL®-coated plates for 3 days. Plates were fixed with 10% formalin. Digital photographs of the cells in the 24-well plates were taken using a Nikon Coolpix 990 digital camera (Nikon Corporation, Tokyo, Japan) connected to a Nikon inverted microscope model TMS.

[10] = system: MDA-MB-231 (MDA-231) cells; test: MATRIGEL outgrowth after 1 hr pre-incubation, MDA-231; assay type: cell-based, human; conditions: MDA-231, 53 μM pre-incubation 1 hr, 3 days on MATRIGEL, FIG. 1 and FIG. 2
Method: as §3, §4, §5

[11] = translocation of phosphatidylserine, up to 53.0 μM
[12] = cultured for 3 days, + stimulation, − inhibition, three independent assays

Row | Compound | Effect on pre-formed 3-dimensional structures on MATRIGEL [1] | Cell cycle progression in multicellular spheroids [2] | Percentage of positive cells for phosphatidylserine (cells in apoptosis) in EL-4 cells ([3]; 0.53 μM) | Percentage of positive cells for phosphatidylserine (cells in apoptosis) in EL-4 cells ([3]; 5.3 μM) | Percentage of positive cells for phosphatidylserine (cells in apoptosis) in EL-4 cells ([3]; 53.0 μM) | Induction of apoptosis in EL-4 cells (in words) [3, 11] | Effect on cellular proliferation (in words) ([4]; 72 hrs) | Percentage of changes in cellular proliferation compared to controls (mean ± s.d.) [4, 12] | Effect on cellular proliferation (in words) ([5]; 72 hrs) | Percentage of changes in cellular proliferation compared to controls (mean ± s.d.) [5, 12] | Percentage of positive cells for phosphatidylserine (cells in apoptosis) in MEG-01 cells ([6]; 5.3 μM) | Percentage of positive cells for phosphatidylserine (cells in apoptosis) in MEG-01 cells ([6]; 26.5 μM) | Percentage of positive cells for phosphatidylserine (cells in apoptosis) in MEG-01 cells ([6]; 53.0 μM) | Induction of apoptosis in MEG-01 cells (in words) [6, 11] | Effect on pre-formed 3-dimensional structures on MATRIGEL [7] | Inhibition of proliferation of synovial HIG-82 cells (in words) [8] | Inhibition of HIG-82 cell proliferation, inhibition (%) [8] | Formation of 3-dimensional structures / cell morphology on MATRIGEL [9] | Formation of 3-dimensional structures / cell morphology on MATRIGEL [10]
1 | COc1ccc(C(OCC(COCCOCCOCCOCCCNC(=O)O[C@H]2CC[C@@]3(C)C(=CC[C@H]4[C@@H]5CC[C@H]([C@H](C)CCCC(C)C)[C@@]5(C)CC[C@@H]43)C2)OP(OCCC#N)N(C(C)C)C(C)C)(c2ccccc2)c2ccc(OC)cc2)cc1 (some centres unmarked) [cholesteryl-TEG phosphoramidite] | did not affect the 3-dimensional structures | did not significantly modify cell cycle progression | 7% | 7% | 7% | neither SEQ ID NO:3 nor cholesteryl-TEG phosphoramidite caused apoptosis | did not significantly affect cellular proliferation | +13 ± 9.2% | did not significantly affect cellular proliferation | −2.3 ± 15.9% | 12% | 12% | 12% | inactive | did not affect the 3-dimensional structures | – | – | – | –
2 | 5′ OH-GTG-OH 3′ (listed as DNA, chemistry not fully specified) [SEQ ID NO:4] | – | – | – | – | – | – | – | – | – | – | – | – | – | – | – | did not inhibit proliferation | −7% | did not change the cellular morphology | did not change the cellular morphology
3 | 5′OH-GTG(TEG-cholesteryl) 3′ (3' {TEG-Chol}, sugars by position and backbone not given here) [SEQ ID NO:8, 5′-OH, 3′-TEG cholesteryl synthetic oligonucleotide] | – | – | – | – | – | – | – | – | – | – | – | – | – | – | – | capacity to inhibit the cellular proliferation | 64% | disrupted the growth pattern | disrupted the growth pattern
